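Step 1: Grow cells in 96-well plates. Step 2: Expose to compound for 48 hours at 5 concentrations. Step 3: Interpolate endpoints linearly; if unreached, use highest concentration. GI50: concentration for 50% inhibition of growth.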 Active and inactive are the calls of the source. Rule as the data show it: active = GI50 up to about 1.1 µM and inactive = higher.
Legend:
Test in all cases: growth of human tumour cells (NCI), 48 h
MDA-N = test system: MDA-N
K562 = test system: K562
U-251 = test system: U-251
HCT-15 = test system: HCT-15
UO-31 = test system: UO-31
UACC-257 = test system: UACC-257
MCF7 = test system: MCF7
DU-145 = test system: DU-145
M14 = test system: M14
SR = test system: SR
SK-OV-3 = test system: SK-OV-3
UACC-62 = test system: UACC-62
SK-MEL-5 = test system: SK-MEL-5
MDA-MB-231 = test system: MDA-MB-231
OVCAR-3 = test system: OVCAR-3
MDA-MB-435 = test system: MDA-MB-435
786-0 = test system: 786-0
NCI-H460 = test system: NCI-H460
SK-MEL-2 = test system: SK-MEL-2
SF-539 = test system: SF-539

Row | SMILES | GI50 (MDA-N) | GI50 (K562) | GI50 (U-251) | GI50 (HCT-15) | GI50 (UO-31) | GI50 (UACC-257) | GI50 (MCF7) | GI50 (DU-145) | GI50 (M14) | GI50 (SR) | GI50 (SK-OV-3) | GI50 (UACC-62) | GI50 (SK-MEL-5) | GI50 (MDA-MB-231) | GI50 (OVCAR-3) | GI50 (MDA-MB-435) | GI50 (786-0) | GI50 (NCI-H460) | GI50 (SK-MEL-2) | GI50 (SF-539)
1 | CC[C@@H](C)[C@H](NC(=O)[C@H](Cc1ccccc1)NCC(F)(F)F)C(=O)OC(C)(C)C | > 100 µM (inactive) | > 100 µM (inactive) | > 100 µM (inactive) | > 100 µM | > 100 µM (inactive) | 81.5 µM (inactive) | > 100 µM (inactive) | > 100 µM (inactive) | > 100 µM (inactive) | > 100 µM (inactive) | > 100 µM (inactive) | 47.8 µM (inactive) | > 100 µM (inactive) | > 100 µM (inactive) | 89.9 µM (inactive) | > 100 µM (inactive) | > 100 µM (inactive) | > 100 µM (inactive) |  | 
2 | CCCn1c(=O)c2ccccc2[n+]2c(-c3ccc([N+](=O)[O-])cc3)csc12 | 31.3 µM (inactive) | 20.9 µM (inactive) | 34.4 µM (inactive) | 34.3 µM | 18.3 µM (inactive) | 27.7 µM (inactive) | 29.9 µM (inactive) | 38.9 µM (inactive) | 35.6 µM (inactive) |  | 36.9 µM (inactive) | 32.7 µM (inactive) | 18.6 µM (inactive) | 33.7 µM (inactive) |  | 38.6 µM (inactive) | 26.2 µM (inactive) | 21.9 µM (inactive) | 35.7 µM (inactive) | 17.2 µM (inactive)
3 | Sc1nc(S)nc(Oc2ccc(Cl)c(Cl)c2)n1 | 77.1 µM (inactive) | 16.5 µM (inactive) | 44.8 µM (inactive) | 43.5 µM | 24.6 µM (inactive) | 43.7 µM (inactive) | 50.6 µM (inactive) | 57.9 µM (inactive) | 43.5 µM (inactive) | 30.1 µM (inactive) | > 51.5 µM (inactive) | 31.3 µM (inactive) | 24.5 µM (inactive) | 39.4 µM (inactive) | 29.6 µM (inactive) | > 100 µM (inactive) | > 61.2 µM (inactive) | 25.5 µM (inactive) |  | > 44.8 µM (inactive)
4 | CSc1nc(C)c(CCOC(C)=O)c(Cl)n1 | > 100 µM (inactive) | > 100 µM (inactive) | > 100 µM (inactive) | > 100 µM | > 100 µM (inactive) | > 100 µM (inactive) | > 100 µM (inactive) | > 100 µM (inactive) | > 100 µM (inactive) | > 100 µM (inactive) | > 100 µM (inactive) | > 100 µM (inactive) | > 100 µM (inactive) | > 100 µM (inactive) | > 100 µM (inactive) | > 100 µM (inactive) | > 100 µM (inactive) | > 100 µM (inactive) |  | > 100 µM (inactive)
5 | CC1(C)[C@@H](Cn2cnc3c(O)nc(N)nc32)CC[C@@]1(C)CO | > 100 µM (inactive) | > 100 µM (inactive) | > 100 µM (inactive) | > 100 µM | > 100 µM (inactive) | > 100 µM (inactive) | > 100 µM (inactive) | > 100 µM (inactive) | > 100 µM (inactive) |  | > 100 µM (inactive) | 60.5 µM (inactive) | > 100 µM (inactive) | > 100 µM (inactive) | > 100 µM (inactive) | > 100 µM (inactive) | > 100 µM (inactive) |  | > 100 µM (inactive) | > 100 µM (inactive)
6 | COC1=CC(=O)c2c(O)ccc(O)c2C1=O | 0.7 µM (active) | 6.68 µM (inactive) | 13.1 µM (inactive) | 2.4 µM | 17.3 µM (inactive) | 1.52 µM (inactive) | 2.82 µM (inactive) | 1.78 µM (inactive) | 0.689 µM (active) |  | 18.6 µM (inactive) | 1.92 µM (inactive) | 0.851 µM (active) | 3.12 µM (inactive) | 2.18 µM (inactive) | 0.659 µM (active) | 14.6 µM (inactive) | 5.04 µM (inactive) |  | 5.19 µM (inactive)
7 | C=CCCCCCCCCCOC1C=CC(O)C(CO)O1 (centres undefined) | 33.3 µM (inactive) | 20.6 µM (inactive) | 28.6 µM (inactive) | 35.1 µM | 35.8 µM (inactive) | 23.7 µM (inactive) | 41.4 µM (inactive) | 95.3 µM (inactive) | 18.6 µM (inactive) |  | 83.6 µM (inactive) | 27.8 µM (inactive) | 20.3 µM (inactive) | 75.5 µM (inactive) | 38 µM (inactive) | 35.5 µM (inactive) | 44.5 µM (inactive) | 25.2 µM (inactive) | 35.7 µM (inactive) | 95.7 µM (inactive)

Source: ChEMBL document CHEMBL1201862, “PubChem BioAssay data set” (2004)
